Patent publication US20240132467A1, “BENZIMIDAZOLE DERIVATIVES FOR TREATING RESPIRATORY DISEASE” (TMEM16A Limited, priority 2020, published 2024)
pEC50: −log10 of the molar value.

Molecular target: T1, human TMEM16A (TMEM16Aabc variant) (Homo sapiens, UniProt Q5XXA6, DEL476-501)
T1 sequence (Q5XXA6 with tags, fused parts or gaps isoform Q5XXA6-5 DEL539-564): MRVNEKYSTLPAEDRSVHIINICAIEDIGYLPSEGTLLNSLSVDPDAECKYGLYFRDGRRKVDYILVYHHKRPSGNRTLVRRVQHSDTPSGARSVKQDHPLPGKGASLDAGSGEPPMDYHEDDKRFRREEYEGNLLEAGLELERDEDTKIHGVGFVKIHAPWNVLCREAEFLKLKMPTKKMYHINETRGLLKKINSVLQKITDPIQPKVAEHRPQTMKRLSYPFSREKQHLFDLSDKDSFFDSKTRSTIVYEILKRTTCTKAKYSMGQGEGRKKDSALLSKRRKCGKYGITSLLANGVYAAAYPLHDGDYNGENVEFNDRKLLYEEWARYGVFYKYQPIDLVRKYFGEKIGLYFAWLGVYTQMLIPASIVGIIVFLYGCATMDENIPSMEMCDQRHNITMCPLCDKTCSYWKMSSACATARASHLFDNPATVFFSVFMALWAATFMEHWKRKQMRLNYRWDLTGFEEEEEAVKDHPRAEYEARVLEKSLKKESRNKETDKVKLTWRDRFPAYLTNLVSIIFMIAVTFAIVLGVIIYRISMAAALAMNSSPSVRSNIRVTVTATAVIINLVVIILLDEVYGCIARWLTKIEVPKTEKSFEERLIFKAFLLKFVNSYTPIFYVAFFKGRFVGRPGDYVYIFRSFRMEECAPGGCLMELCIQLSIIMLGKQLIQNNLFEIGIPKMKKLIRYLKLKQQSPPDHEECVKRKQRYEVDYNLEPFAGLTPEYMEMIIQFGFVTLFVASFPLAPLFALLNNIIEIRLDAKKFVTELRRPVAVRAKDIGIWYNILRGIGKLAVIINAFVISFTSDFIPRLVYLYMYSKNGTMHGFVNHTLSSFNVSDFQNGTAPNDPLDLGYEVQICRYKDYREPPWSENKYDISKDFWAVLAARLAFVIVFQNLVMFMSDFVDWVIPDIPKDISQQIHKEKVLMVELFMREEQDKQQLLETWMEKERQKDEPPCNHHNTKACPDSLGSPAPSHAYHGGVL
Experiment: Automated whole-cell patch clamp (Qpatch) TMEM16A potentiator assay in FRT cells stably expressing human TMEM16A
Format: cell-based
Settings: for activation at 3.33 µM: 3.33 μM test compound, percentage increase of baseline TMEM16A current at +70 mV, intracellular calcium at EC20, read-out: % Potentiation @ 3.33 μM Avg; for pEC50: cumulative concentration response, 5 min per concentration, whole-cell patch clamp
Procedure: Automated whole-cell patch clamp assay to detect TMEM16A activity in recombinant cells Cell culture and preparation
Fisher rat thyroid (FRT) cells stably expressing human TMEM16A (TMEM16Aabc variant; Dr Luis Galietta, Insituto Giannina, Italy) were cultured in T-75 flasks in Hams F-12 media with Coon's modification (Sigma) supplemented with 10% (v/v) foetal bovine serum, penicillin-streptomycin (10,000 U/mL/10000 μg/mL), G-418 (750μg/mL), L-glutamine (2 mM) and sodium bicarbonate solution (7.5% v/v). At —90% confluence cells were harvested for experiments by detachment with a 2:1 (v/v) mixture of Detachin (BMS Biotechnology) and 0.25% (w/v) trypsin-EDTA. Cells were diluted to a density of 3.5-4.5×10^6 cells/mL with media consisting of CHO-S-SFM II (Sigma), 25 mM HEPES (Sigma) and Soy bean trypsin inhibitor (Sigma).
Whole-Cell Patch Clamp Recording
FRT-TMEM16A cells were whole-cell patch clamped using an automated planar patch clamp system (Qpatch, Sophion). Briefly, once high resistance (GOhm) seals were established between the cells and the planar recording array the patch was ruptured using suction pulses to establish the whole-cell recording configuration of the patch clamp technique. The assay employed the following solutions (all reagents Sigma):
Intracellular solution (mM): N-methyl-D-glucamine 130, CaCl2 18.2, MgCl2 1, HEPES 10, EGTA 10, BAPTA 20, Mg-ATP 2, pH 7.25, 325mOsm with sucrose.
Extracellular solution (mM): N-methyl-D-glucamine 130, CaCl2 2, MgCl2 1, HEPES 10, pH 7.3, 320 mOsm with sucrose.
The intracellular solution buffers intracellular calcium at levels required to give —20% activation of the maximal TMEM16A mediated current (EC20 for calcium ions). Cells were voltage clamped at a holding potential of -70mV and a combined voltage step (to +70 mV)/ramp (−90 my to +90 mV) was applied at 0.05 Hz. After a period of current stabilisation test compounds, solubilised in 100% (v/v) DMSO and subsequently diluted into extracellular solution, were applied to generate a cumulative concentration response curve. Each concentration of test compound was incubated for 5 minutes before addition of the next concentration. After the final concentration was tested a supramaximal concentration of either a known active positive modulator or the TMEM16A inhibitor, CaCCinhA01 (Del La Fuente et al, 2008) was added to define the upper and lower limits of the assay.
Compound activity was quantified by measuring the increase in current upon compound addition and expressing this as a percentage increase of baseline TMEM16A current level. Percentage increases in current were determined for each concentration and the data plotted as a function of concentration using either the Qpatch software or Graphpad Prism v6.05 providing the concentration which gave 50% of its maximal effect (EC50) and maximum efficacy (percentage of baseline increase).
In FIG. 1, IBL equals baseline current, km equals the peak current during test compound concentration 1 incubation period and so on.
Peak TMEM16A current at +70mV was plotted as a function of time over the assay period. Baseline current (IBL) was measured after a period of stabilisation. The increase in current for each compound addition was determined by taking the peak current during the incubation period and subtracting the current from the previous recording period and then expressing this as a percentage of the baseline current. For test compound concentration 1 in FIG. 1 this is:
For each additional concentration tested the increase in current was determined by subtracting the current from the previous incubation period and normalising the baseline value—for test concentration 2 in FIG. 1 this is:
The values for each test concentration were plotted as a cumulative function of concentration e.g. for test concentration two this would be the sum of the peak changes measured during concentration one plus concentration two.

SMILES	activation at 3.33 µM	pEC50
CC1(CNC(=O)c2ccc3[nH]c(Cc4ccccc4)nc3c2)CCCCC1 [Example 1.10.1, 2-Benzyl-N-1(1-methylcyclohexyl)methylj-1H-benzimidazole-5-carboxamide]	124%	6.68
O=C(NCC1CCCCCCC1)c1ccc2[nH]c(Cc3ccccc3)nc2c1 [Example 1.10.2, 2-Benzyl-N-(cyclooctylmethyl)-1H-benzimidazole-5-carboxamide]	76.1%	6.72
CC(C)(C)OC(=O)NCC1(CC(=O)Nc2ccc3[nH]c(Cc4ccccc4)nc3c2)CCCCC1 [Example 2.1, tert-Butyl N-[[1-[2-[(2-benzyl-1H-benzimidazol-5-yl)amino]-2-oxo-ethyl]cyclohexyl]methyl]carbamate]	215%	6.07
O=C(CC1CCC(F)(F)CC1)Nc1ccc2[nH]c(Cc3ccccc3)nc2c1 [Example 2.1.1]	47.6%	6.24
COCC(NC(=O)OC(C)(C)C)c1nc2cc(NC(=O)CC3C4CC5CC(C4)CC3C5)ccc2[nH]1 (stereo not shown) [Example 2.2, tert-Butyl N-[1-[5-[[2-(2-adamantyl)acetyl]amino]-1H-benzimidazol-2-yl]-2-methoxy-ethyl]carbamate]	197%	6.21
CN(C(=O)OC(C)(C)C)[C@H](c1ccccc1)c1nc2cc(NC(=O)CC3C4CC5CC(C4)CC3C5)ccc2[nH]1 (stereo partly shown) [Example 2.2.1]	97.7%	6.04
CN(C(=O)OC(C)(C)C)[C@@H](c1ccccc1)c1nc2cc(NC(=O)CC3C4CC5CC(C4)CC3C5)ccc2[nH]1 (stereo partly shown) [Example 2.2.2]	127%	6.02
CCN(Cc1nc2ccc(NC(=O)CC3C4CC5CC(C4)CC3C5)cc2[nH]1)C(=O)OC(C)(C)C (stereo not shown) [Example 2.2.3]	155%	5.99
COCCN(Cc1nc2ccc(NC(=O)CC3C4CC5CC(C4)CC3C5)cc2[nH]1)C(=O)OC(C)(C)C (stereo not shown) [Example 2.2.4]	190%	5.97
COCCc1nc2ccc(NC(=O)CC3C4CC5CC(C4)CC3C5)cc2[nH]1 (stereo not shown) [Example 2.2.5, 2-(2-Adamantyl)-N[2-(2-methoxyethyl)-3H-benzimidazol-5-yl]acetamide]	113%	6.12
COCCCc1nc2cc(NC(=O)CC3C4CC5CC(C4)CC3C5)ccc2[nH]1 (stereo not shown) [Example 2.2.6, 2-(2-Adamantyl)-N[2-(3-methoxypropyl)-1H-benzimidazol-5-yl]acetamide]	167%	6.11
CN(Cc1nc2cc(NC(=O)CC3C4CC5CC(C4)CC3C5)ccc2[nH]1)C(=O)OC(C)(C)C (stereo not shown) [Example 2.3, tert-Butyl N-[[5-[[2-(2-adamanty)acetyl]amino]-1H-benzimidazol-2-yl]methyl]-N-methyl-carbamate]	201%	5.97
O=C(NCC1CCCCCC1)c1ccc2[nH]c(C3COc4ccccc43)nc2c1 (stereo not shown) [Example 2.4, N-(Cycloheptylmethyl)-2-(2,3-dihydrobenzofuran-3-yl)-1H-benzimidazole-5-carboxamide]	133%	6.18
O=C(CC1C2CC3CC(C2)CC1C3)Nc1ccc2[nH]c(C(O)c3ccccc3)nc2c1 (stereo not shown) [Example 2.5, 2-(2-Adamantyl)-N-12-[hydroxy(phenyl)methyl]-1H-benzimidazol-5-yljacetamide]	58.9%	6.82
O=C(CC1CCCCC1)Nc1ccc2[nH]c(-c3ccccc3)nc2c1 [Example 3.1, 2-Cyclohexyl-N-(2-phenyl-1H-benzimidazol-5-yl)acetamide]	74%	6.54
O=C(Nc1ccc2[nH]c(Cc3ccccc3)nc2c1)C12CC3CC(CC(C3)C1)C2 [Example 3.2, N-(2-Benzyl-1H-benzimidazol-5-yl)adamantane-1-carboxamide]	58.5%	6.48
O=C(NCC1CCCCCC1)c1cc(F)c2[nH]c(Cc3cccc(O)c3)nc2c1 [Example 3.3, N-(Cycloheptylmethyl)-7-fluoro-2-[(3-hydroxyphenyl)methyl]-1H-benzimidazole-5-carboxamide]	114%	6.26
O=C(NCC1CCCCCC1)c1cc2nc(Cc3cccc(O)c3)[nH]c2cc1F [Example 3.3.1, N-(Cycloheptylmethyl)-6-fluoro-2-[(3-hydroxyphenyl)methyl]-1H-benzimidazole-5-carboxamide]	95.8%	6.33
O=C(NCC1CCCCCC1)c1ccc2[nH]c(Cc3cccc(O)c3)nc2c1F [Example 3.3.2, N-(Cycloheptylmethyl)-4-fluoro-2-[(3-hydroxyphenyl)methyl]-1H-benzimidazole-5-carboxamide]	90.2%	6.22
Cc1noc(C)c1Cc1nc2cc(NC(=O)CC3C4CC5CC(C4)CC3C5)ccc2[nH]1 (stereo not shown) [Example 3.4.1]	116%	6.24
CC(C)(C)OC(=O)NCCc1nc2cc(NC(=O)CC3C4CC5CC(C4)CC3C5)ccc2[nH]1 (stereo not shown) [Example 3.4]	99.8%	6.33
CC(C)(C)CNC(=O)c1ccc2[nH]c(Cc3ccccc3)nc2c1 [Example 3.5, 2-Benzyl-N-(2,2-dimethylpropyl)-1H-benzimidazole-5-carboxamide]	144%	5.99
CC(C)(C)C(C)(C)NC(=O)c1ccc2[nH]c(Cc3ccccc3)nc2c1 [Example 3.5.1, 2-Benzyl-N-(1,1,2,2-tetramethylpropyl)-1H-benzimidazole-5-carboxamide]	89.5%	6.11
